Test results reported in article PMC2923838 (Chemical research in toxicology, 2009).

Molecular target: D-amino acid oxidase (DAAO) (Sus scrofa, UniProt P00371)
Assay: […] benzoate with porcine DAAO and D-Trp in […] cells
Format: cell-based
Details: read-out: % attenuation at 20 mM

Chain of D-amino acid oxidase (DAAO) (P00371 whole entry): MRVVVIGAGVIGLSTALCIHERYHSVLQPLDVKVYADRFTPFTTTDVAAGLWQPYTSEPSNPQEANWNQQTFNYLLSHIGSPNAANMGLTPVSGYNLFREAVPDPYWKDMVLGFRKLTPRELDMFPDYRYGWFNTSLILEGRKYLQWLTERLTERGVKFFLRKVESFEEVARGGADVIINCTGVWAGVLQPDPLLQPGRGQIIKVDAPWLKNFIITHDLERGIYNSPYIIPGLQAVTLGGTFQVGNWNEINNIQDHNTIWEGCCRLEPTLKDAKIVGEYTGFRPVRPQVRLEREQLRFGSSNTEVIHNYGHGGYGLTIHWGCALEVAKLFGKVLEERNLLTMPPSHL

Question: With `O=C(O)c1ccccc1` [sodium benzoate] as the compound, how does the inhibition at 20000 µM read?
Answer: The inhibition at 20000 µM was 76%.
